Laboratory results published in patent US9108921B2, “Therapeutic compounds and compositions” (AGIOS PHARMACEUTICALS, INC, priority 2014, dated 2015).

How the values were obtained:
PKR R510Q = PKR R510Q (Homo sapiens, UniProt P30613, R510Q); assay: PKR Mutant Assay, AC50 against PKR R510Q; assay type: biochemical; conditions: mutant PKR R510Q enzyme
In short: (§1)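 Human PKR (WT or mutant, 80-400 ng/well) in 50 mM Tris pH 7.5, 100 mM KCl, 5 mM MgCl2, 1 mM DTT, 0.03% BSA with PEP 0.1-0.5 mM, NADH 180 uM and LDH, preincubated 60 min at room temperature with compound (11-point 3-fold series from 100 μM final, 1% DMSO). ADP 0.22-1.65 mM started reaction; A340 followed.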

PKR WT [1] = molecular target: T1, PKR WT (Homo sapiens, UniProt P30613); assay: PKR WT enzymatic AC50 assay; assay type: biochemical; conditions: wild type PKR
T1 sequence (P30613 whole entry): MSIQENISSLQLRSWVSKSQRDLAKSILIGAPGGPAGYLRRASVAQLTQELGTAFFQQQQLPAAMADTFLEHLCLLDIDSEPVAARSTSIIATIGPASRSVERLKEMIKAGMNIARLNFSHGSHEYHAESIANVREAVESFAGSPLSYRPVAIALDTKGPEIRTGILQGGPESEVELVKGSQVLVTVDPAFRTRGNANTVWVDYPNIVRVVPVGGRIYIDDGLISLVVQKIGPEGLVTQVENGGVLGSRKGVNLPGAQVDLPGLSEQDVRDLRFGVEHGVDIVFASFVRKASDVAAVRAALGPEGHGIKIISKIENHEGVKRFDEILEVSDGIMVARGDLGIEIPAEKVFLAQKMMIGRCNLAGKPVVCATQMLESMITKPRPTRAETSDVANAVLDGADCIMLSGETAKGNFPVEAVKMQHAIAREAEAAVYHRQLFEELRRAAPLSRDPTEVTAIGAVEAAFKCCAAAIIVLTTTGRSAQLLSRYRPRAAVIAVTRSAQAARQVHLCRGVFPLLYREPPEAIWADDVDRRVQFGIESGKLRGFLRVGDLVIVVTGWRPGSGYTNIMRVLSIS
In short: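 Steps: compound added to wells, then reaction mix lacking ADP; 60 min room-temperature hold; ADP (0.22-1.65 mM) added to start; A340 monitored at room temperature via PEP/LDH/NADH coupling. Top final compound concentration 100 μM, 3-fold dilutions over 11 points.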

PKR WT [2] = molecular target: T1, PKR WT; assay: PKR WT cell based AC50 assay; conditions: wild type PKR
PKR R532W = PKR R532W (Homo sapiens, UniProt P30613, R532W); assay: PKR Mutant Assay, AC50 against PKR R532W; assay type: biochemical; conditions: mutant PKR R532W enzyme
PKR R532W, sequence (P30613 whole entry R532W): as the sequence (P30613 whole entry) above, with R532W counted along it
In short: as §1

PKR R510Q, sequence (P30613 whole entry R510Q): as the sequence (P30613 whole entry) above, with R510Q counted along it

Row | AC50 (PKR R510Q) [nM] | AC50 (PKR WT [1]) [nM] | AC50 (PKR WT [2]) [nM] | AC50 (PKR R532W) [nM] | Structure (SMILES)
1 | < 100 | < 100 | < 100 | < 100 | CCc1ccccc1C1(O)CCN(C(=O)c2ccc(NS(=O)(=O)c3cccc4cccnc34)cc2)CC1 [Compound 127, N-(4-(4-(2-ethylphenyl)-4-hydroxypiperidine-1-carbonyl)phenyl)quinoline-8-sulfonamide]
2 | < 100 | < 100 | < 100 | < 100 | O=C(c1ccc(NS(=O)(=O)c2cccc3cc(F)cnc23)cc1)N1CCC(O)(Cc2ccccc2)CC1 [Compound 128, N-(4-(4-benzyl-4-hydroxypiperidine-1-carbonyl)phenyl)-3-fluoroquinoline-8-sulfonamide]
3 | < 100 | < 100 | < 100 | < 100 | Cc1nc(F)ccc1C1(O)CCN(C(=O)c2ccc(NS(=O)(=O)c3cccc4cccnc34)cc2)CC1 [Compound 129, N-(4-(4-(6-fluoro-2-methylpyridin-3-yl)-4-hydroxypiperidine-1-carbonyl)phenyl)quinoline-8-sulfonamide]
4 | < 100 | < 100 | < 100 | < 100 | CC(C)(C)CC1(O)CCN(C(=O)c2ccc(NS(=O)(=O)c3cccc4nccnc34)cc2)CC1 [Compound 130, N-(4-(4-hydroxy-4-neopentylpiperidine-1-carbonyl)phenyl)quinoxaline-5-sulfonamide]
5 | < 100 | < 100 | < 100 | < 100 | O=C(c1ccc(NS(=O)(=O)c2cccc3cccnc23)cc1)N1CCC(O)(Cc2ccccc2)CC1 [Compound 131, N-(4-(4-benzyl-4-hydroxypiperidine-1-carbonyl)phenyl)quinoline-8-sulfonamide]
6 | < 100 | < 100 | < 100 | < 100 | O=C(c1ccc(NS(=O)(=O)c2cccc3cccnc23)cc1)N1CCC(O)(c2ccc(F)c(Br)n2)CC1 [Compound 133, N-(4-(4-(6-bromo-5-fluoropyridin-2-yl)-4-hydroxypiperidine-1-carbonyl)phenyl)quinoline-8-sulfonamide]
7 | < 100 | < 100 | < 100 | < 100 | CC(C)(C)CC1(O)CCN(C(=O)c2ccc(NS(=O)(=O)c3cccc4scnc34)cc2)CC1 [Compound 134, N-(4-(4-hydroxy-4-neopentylpiperidine-1-carbonyl)phenyl)benzo[d]thiazole-4-sulfonamide]
8 | 101 to 1000 | < 100 | < 100 | < 100 | COc1cccc(CC2(O)CCN(C(=O)c3ccc(NS(=O)(=O)c4cccc5cccnc45)cc3)CC2)c1 [Compound 135, N-(4-(4-hydroxy-4-(3-methoxybenzyl)piperidine-1-carbonyl)phenyl)quinoline-8-sulfonamide]
9 | < 100 | < 100 | < 100 | < 100 | O=C(c1ccc(NS(=O)(=O)c2cccc3cccnc23)cc1OC(F)(F)F)N1CCC(O)(c2ccccc2Cl)CC1 [Compound 136, N-(4-(4-(2-chlorophenyl)-4-hydroxypiperidine-1-carbonyl)-3-(trifluoromethoxy)phenyl)quinoline-8-sulfonamide]
10 | < 100 | < 100 | < 100 | < 100 | CC(C)CC1(C=O)CCN(C(=O)c2ccc(NS(=O)(=O)c3cccc4cccnc34)cc2)CC1 [Compound 137, N-(4-(4-formyl-4-isobutylpiperidine-1-carbonyl)phenyl)quinoline-8-sulfonamide]
11 | < 100 | < 100 | < 100 | < 100 | Cc1cc(F)ccc1C1(O)CCN(C(=O)c2ccc(NS(=O)(=O)c3cccc4cccnc34)cc2)CC1 [Compound 138, N-(4-(4-(4-fluoro-2-methylphenyl)-4-hydroxypiperidine-1-carbonyl)phenyl)quinoline-8-sulfonamide]
12 | < 100 | < 100 | < 100 | < 100 | CC(C)CC1(O)CCN(C(=O)c2ccc(NS(=O)(=O)c3cccc4cccnc34)cc2)CC1 [Compound 140, N-(4-(4-hydroxy-4-isobutylpiperidine-1-carbonyl)phenyl)quinoline-8-sulfonamide]
13 | 101 to 1000 | < 100 | < 100 | < 100 | Cc1cc(NS(=O)(=O)c2cccc3cccnc23)ccc1C(=O)N1CCC(O)(c2ccccc2Cl)CC1 [Compound 141, N-(4-(4-(2-chlorophenyl)-4-hydroxypiperidine-1-carbonyl)-3-methylphenyl)quinoline-8-sulfonamide]
14 | 101 to 1000 | < 100 | < 100 | < 100 | O=C(c1ccc(NS(=O)(=O)c2cccc3cccnc23)cc1)N1CCC(O)(c2cccc(F)c2)CC1 [Compound 142, N-(4-(4-(3-fluorophenyl)-4-hydroxypiperidine-1-carbonyl)phenyl)quinoline-8-sulfonamide]
15 | < 100 | < 100 | < 100 | < 100 | O=C(c1ccc(NS(=O)(=O)c2cccc3cccnc23)c(F)c1)N1CCC(O)(c2ccccc2Cl)CC1 [Compound 143, N-(4-(4-(2-chlorophenyl)-4-hydroxypiperidine-1-carbonyl)-2-fluorophenyl)quinoline-8-sulfonamide]
16 | < 100 | < 100 | < 100 | < 100 | O=C(c1ccc(NS(=O)(=O)c2cccc3cccnc23)cc1)N1CCC(O)(CC2CC2)CC1 [Compound 144, N-(4-(4-(cyclopropylmethyl)-4-hydroxypiperidine-1-carbonyl)phenyl)quinoline-8-sulfonamide]
17 | < 100 | < 100 | < 100 | < 100 | CC(C)CC1(O)CCN(C(=O)c2ccc(NS(=O)(=O)c3cc(F)cc4sc(N)nc34)cc2)CC1 [Compound 145, 2-amino-6-fluoro-N-(4-(4-hydroxy-4-isobutylpiperidine-1-carbonyl)phenyl)benzo[d]thiazole-4-sulfonamide]
18 | 101 to 1000 | < 100 | < 100 | < 100 | O=C(c1ccc(NS(=O)(=O)c2cccc3cccnc23)cc1)N1CCC(O)(Cc2cccc(F)n2)CC1 [Compound 146, N-(4-(4-((6-fluoropyridin-2-yl)methyl)-4-hydroxypiperidine-1-carbonyl)phenyl)quinoline-8-sulfonamide]
19 | 101 to 1000 | < 100 | < 100 | < 100 | Cc1ncccc1C1(O)CCN(C(=O)c2ccc(NS(=O)(=O)c3cccc4cccnc34)cc2)CC1 [Compound 147, N-(4-(4-hydroxy-4-(2-methylpyridin-3-yl)piperidine-1-carbonyl)phenyl)quinoline-8-sulfonamide]
20 | 101 to 1000 | < 100 | 101 to 1000 | < 100 | O=C(c1ccc(NS(=O)(=O)c2cccc3cccnc23)cc1)N1CCC(O)(c2ncccc2F)CC1 [Compound 148, N-(4-(4-(3-fluoropyridin-2-yl)-4-hydroxypiperidine-1-carbonyl)phenyl)quinoline-8-sulfonamide]
21 | < 100 | < 100 | 101 to 1000 | < 100 | O=C(c1ccc(NS(=O)(=O)c2cccc3cccnc23)cc1)N1CCC(O)(c2ccccc2OC(F)(F)F)CC1 [Compound 150, N-(4-(4-hydroxy-4-(2-(trifluoromethoxy)phenyl)piperidine-1-carbonyl)phenyl)quinoline-8-sulfonamide]
22 | < 100 | < 100 | < 100 | < 100 | O=C(c1ccc(NS(=O)(=O)c2cccc3cccnc23)cc1OC(F)F)N1CCC(O)(c2ccccc2Cl)CC1 [Compound 151, N-(4-(4-(2-chlorophenyl)-4-hydroxypiperidine-1-carbonyl)-3-(difluoromethoxy)phenyl)quinoline-8-sulfonamide]
23 | 101 to 1000 | < 100 | 101 to 1000 | < 100 | O=C(c1ccc(NS(=O)(=O)c2cccc3cccnc23)cc1)N1CCC(O)(Cc2cccc(C(F)(F)F)c2)CC1 [Compound 152, N-(4-(4-hydroxy-4-(3-(trifluoromethyl)benzyl)piperidine-1-carbonyl)phenyl)quinoline-8-sulfonamide]
24 | 101 to 1000 | < 100 | < 100 | < 100 | Cc1cccnc1C1(O)CCN(C(=O)c2ccc(NS(=O)(=O)c3cccc4cccnc34)cc2)CC1 [Compound 153, N-(4-(4-hydroxy-4-(3-methylpyridin-2-yl)piperidine-1-carbonyl)phenyl)quinoline-8-sulfonamide]
25 | < 100 | < 100 | < 100 | < 100 | Nc1nc2c(S(=O)(=O)Nc3ccc(C(=O)N4CCC(O)(c5ccccc5Cl)CC4)cc3)cc(F)cc2s1 [Compound 154, 2-amino-N-(4-(4-(2-chlorophenyl)-4-hydroxypiperidine-1-carbonyl)phenyl)-6-fluorobenzo[d]thiazole-4-sulfonamide]
26 | 101 to 1000 | < 100 | < 100 | < 100 | O=C(c1ccc(NS(=O)(=O)c2cccc3scnc23)cc1)N1CCC(O)(c2ccccc2Cl)CC1 [Compound 155, N-(4-(4-(2-chlorophenyl)-4-hydroxypiperidine-1-carbonyl)phenyl)benzo[d]thiazole-4-sulfonamide]
27 | 101 to 1000 | < 100 | < 100 | < 100 | O=C(c1ccc(NS(=O)(=O)c2cccc3cccnc23)cc1)N1CCC(O)(c2ccccc2)CC1 [Compound 156, N-(4-(4-hydroxy-4-phenylpiperidine-1-carbonyl)phenyl)quinoline-8-sulfonamide]
